Assay results reported in patent US20230295109A1, “PYRIDINONE COMPOUNDS FOR THE TREATMENT OF AUTOIMMUNE DISEASE” (F. Hoffmann-La Roche AG, priority 2020, published 2023).

target: T1, TLR9 (Homo sapiens, UniProt Q9NR96); assay: HEK293-Blue-hTLR-9 cells assay; format: cell-based; set-up: host or cells: HEK293 (HEK-Blue hTLR9); settings: HEK293-Blue-hTLR9 cells, ODN2006 stimulation, 20 hrs, SEAP reporter; read-out: HEK/hTLR9 IC50
T1 sequence (Q9NR96 26-1032): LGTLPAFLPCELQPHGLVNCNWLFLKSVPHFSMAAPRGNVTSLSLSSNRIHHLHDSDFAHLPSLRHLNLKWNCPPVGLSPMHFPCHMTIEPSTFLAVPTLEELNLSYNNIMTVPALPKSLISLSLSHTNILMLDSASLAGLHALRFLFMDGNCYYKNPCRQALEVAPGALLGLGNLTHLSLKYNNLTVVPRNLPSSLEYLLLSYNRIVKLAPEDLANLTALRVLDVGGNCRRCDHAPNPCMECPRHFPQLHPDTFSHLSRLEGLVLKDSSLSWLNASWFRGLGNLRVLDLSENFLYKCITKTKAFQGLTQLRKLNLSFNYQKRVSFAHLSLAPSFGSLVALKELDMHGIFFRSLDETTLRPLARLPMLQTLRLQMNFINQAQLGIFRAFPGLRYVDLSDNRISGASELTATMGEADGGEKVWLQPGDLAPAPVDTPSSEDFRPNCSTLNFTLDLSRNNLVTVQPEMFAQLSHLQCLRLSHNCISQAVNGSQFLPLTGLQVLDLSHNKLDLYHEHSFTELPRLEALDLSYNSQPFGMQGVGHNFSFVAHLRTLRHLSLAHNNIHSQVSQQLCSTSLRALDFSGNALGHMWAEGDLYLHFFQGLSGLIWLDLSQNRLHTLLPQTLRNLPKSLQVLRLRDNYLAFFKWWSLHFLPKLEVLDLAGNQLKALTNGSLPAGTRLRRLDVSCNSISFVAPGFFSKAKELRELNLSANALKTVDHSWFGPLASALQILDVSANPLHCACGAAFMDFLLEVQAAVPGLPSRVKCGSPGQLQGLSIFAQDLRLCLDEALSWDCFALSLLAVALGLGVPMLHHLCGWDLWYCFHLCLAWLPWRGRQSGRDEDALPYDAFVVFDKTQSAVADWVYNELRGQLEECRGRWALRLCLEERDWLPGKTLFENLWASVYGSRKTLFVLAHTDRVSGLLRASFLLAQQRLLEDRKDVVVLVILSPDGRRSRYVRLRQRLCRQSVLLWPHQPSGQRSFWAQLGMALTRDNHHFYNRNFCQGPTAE
Excerpt: A stable HEK293-Blue-hTLR-9 cell line was purchased from InvivoGen (Cat.#: hkb-htlr9, San Diego, California, USA). These cells were originally designed for studying the stimulation of human TLR9 by monitoring the activation of NF-κB. A SEAP (secreted embryonic alkaline phosphatase) reporter gene was placed under the control of the IFN-β minimal promoter fused to five NF-κB and AP-1-binding sites. The SEAP was induced by activating NF-κB and AP-1 via stimulating HEK-Blue hTLR9 cells with TLR9 ligands. Therefore the reporter expression was declined by TLR9 antagonist under the stimulation of a ligand, such as ODN2006 (Cat.#: tlrl-2006-1, Invivogen, San Diego, California, USA), for incubation of 20 hrs. The cell culture supernatant SEAP reporter activity was determined using QUANTI-Blue™ kit (Cat.#: rep-qb1, Invivogen, San Diego, California, USA) at a wavelength of 640 nm, a detection medium that turns purple or blue in the presence of alkaline phosphatase.
HEK293-Blue-hTLR9 cells were incubated at a density of 250,000~450,000 cells/mL in a volume of 170 µL in a 96-well plate in Dulbecco’s Modified Eagle’s medium (DMEM) containing 4.5 g/L glucose, 50 U/mL penicillin, […], […], 2 mM L-glutamine, 10% (v/v) heat-inactivated fetal bovine serum with addition of 20 µL test compound in a serial dilution in the presence of final DMSO at 1% and 10 µL of 20uM ODN2006 in above DMEM, perform incubation under 37° C. in a CO2 incubator for 20 hrs. Then 20 µL of the supernatant from each well was incubated with 180 µL Quanti-blue substrate solution at 37° C. for 2 h and the absorbance was read at 620 \~655 nm using a spectrophotometer. The signaling pathway that TLR9 activation leads to downstream NF-κB activation has been widely accepted, and therefore similar reporter assay was modified for evaluating TLR9 antagonist.

Row | SMILES | IC50
1 | CCc1nc(N2CCN(Cc3cnc(N4CC5(CNCCO5)C4)nc3)CC2)ccc1-c1cc(C)c(=O)n(C)c1 [Example 1, 5-[2-ethyl-6-[4-[[2-(5-oxa-2,8-diazaspiro[3.5]nonan-2-yl)pyrimidin-5-yl]methyl]piperazin-1-yl]-3-pyridyl]-1,3-dimethyl-pyridin-2-one] | 700 nM
2 | CCc1nc(N2CCN(Cc3ccc(N4CC5(CNCCO5)C4)nc3)CC2)ccc1-c1cc(C)c(=O)n(C)c1 [Example 2, 5-[2-ethyl-6-[4-[[6-(5-oxa-2,8-diazaspiro[3.5]nonan-2-yl)-3 pyridyl]methyl]piperazin-1-yl]-3-pyridyl]-1,3-dimethyl-pyridin-2-one] | 212 nM
3 | CCc1nc(N2CCN(Cc3cnc(N4CC(C)(N)C4)nc3)CC2)ccc1-c1cc(C)c(=O)n(C)c1 [Example 3, 5-[6-[4-[[2-(3-amino-3-methyl-azetidin-1-yl)pyrimidin-5-yl]methyl]piperazin-1-yl]-2-ethyl-3-pyridyl]-1,3-dimethyl-pyridin-2-one] | 621 nM
4 | CCc1nc(N2CCN(Cc3cnc(N4CCOC[C@@H](N)C4)nc3)CC2)ccc1-c1cc(C)c(=O)n(C)c1 [Example 4, 5-[6-[4-[[2-[(6S)-6-amino-1,4-oxazepan-4-yl]pyrimidin-5-yl]methyl]piperazin-1-yl]-2-ethyl-3-pyridyl]-1,3-dimethyl-pyridin-2-one] | 318 nM
5 | CCc1nc(N2CCN(Cc3ccc(N4CCNCC4)cc3)CC2)ccc1-c1cc(C)c(=O)n(C)c1 [Example 5, 5-[2-ethyl-6-[4-[(4-piperazin-1-ylphenyl)methyl]piperazin-1-yl]-3-pyridyl]-1,3-dimethyl-pyridin-2-one] | 54 nM
6 | Cc1cc(-c2ccc(N3CCN(Cc4cnc(N5CC6(CNCCO6)C5)nc4)CC3)nc2C(C)C)cn(C)c1=O [Example 6, 5-[2-isopropyl-6-[4-[[2-(5-oxa-2,8-diazaspiro[3.5]nonan-2-yl)pyrimidin-5-yl]methyl]piperazin-1-yl]-3-pyridyl]-1,3-dimethyl-pyridin-2-one] | 198 nM
7 | Cc1cc(-c2ccc(N3CCN(Cc4ccc(N5CCNCC5)cn4)CC3)nc2C(C)C)cn(C)c1=O [Example 7, 5-[2-isopropyl-6-[4-[(5-piperazin-1-yl-2-pyridyl)methyl]piperazin-1-yl]-3-pyridyl]-1,3-dimethyl-pyridin-2-one] | 143 nM
8 | Cc1cc(-c2ccc(N3CCN(Cc4cnc(N5CCNCC5)cn4)CC3)nc2C(C)C)cn(C)c1=O [Example 8, 5-[2-isopropyl-6-[4-[(5-piperazin-1-ylpyrazin-2-yl)methyl]piperazin-1-yl]-3-pyridyl]-1,3-dimethyl-pyridin-2-one] | 176 nM
9 | Cc1cc(-c2ccc(N3CCN(Cc4cnc(N5CCNCC5)nc4)CC3)nc2C(C)C)cn(C)c1=O [Example 9, 5-[2-isopropyl-6-[4-[(2-piperazin-1-ylpyrimidin-5-yl)methyl]piperazin-1-yl]-3-pyridyl]-1,3-dimethyl-pyridin-2-one] | 183 nM
10 | Cc1cc(-c2ccc(N3CCN(Cc4cnc(N5CC(C)(N)C5)nc4)CC3)nc2C(C)C)cn(C)c1=O [Example 10, 5-[6-[4-[[2-(3-amino-3-methyl-azetidin-1-yl)pyrimidin-5-yl]methyl]piperazin-1-yl]-2-isopropyl-3-pyridyl]-1,3-dimethyl-pyridin-2-one] | 139 nM
11 | Cc1cc(-c2ccc(N3CCN(Cc4ccc(N5CCNCC5)nc4)CC3)nc2C(C)C)cn(C)c1=O [Example 11, 5-[2-isopropyl-6-[4-[(6-piperazin-1-yl-3-pyridyl)methyl]piperazin-1-yl]-3-pyridyl]-1,3-dimethyl-pyridin-2-one] | 136 nM
12 | Cc1cc(-c2ccc(N3CCN(Cc4ncc(N5CCNCC5)cn4)CC3)nc2C(C)C)cn(C)c1=O [Example 12, 5-[2-isopropyl-6-[4-[(5-piperazin-1-ylpyrimidin-2-yl)methyl]piperazin-1-yl]-3-pyridyl]-1,3-dimethyl-pyridin-2-one] | 763 nM
13 | Cc1cc(-c2ccc(N3CCN(Cc4ccc(N5CCNCC5)cc4)CC3)nc2C(C)C)cn(C)c1=O [Example 13, 5-[2-isopropyl-6-[4-[(4-piperazin-1-ylphenyl)methyl]piperazin-1-yl]-3-pyridyl]-1,3-dimethyl-pyridin-2-one] | 111 nM
14 | Cc1cc(-c2ccc(N3CCN(Cc4cccc(N5CCNCC5)c4)CC3)nc2C(C)C)cn(C)c1=O [Example 14, 5-[2-isopropyl-6-[4-[(3-piperazin-1-ylphenyl)methyl]piperazin-1-yl]-3-pyridyl]-1,3-dimethyl-pyridin-2-one] | 143 nM
15 | Cc1cc(-c2ccc(N3CCN(c4ccc5c(n4)CCNC5)CC3)nc2C(C)C)cn(C)c1=O [Example 15, 5-[2-isopropyl-6-[4-(5,6,7,8-tetrahydro-1,6-naphthyridin-2-yl)piperazin-1-yl]-3-pyridyl]-1,3-dimethyl-pyridin-2-one] | 803 nM
16 | Cc1cc(-c2ccc(N3CCN4CCN(c5ccc(N6CCNCC6)nc5)CC4C3)nc2C(C)C)cn(C)c1=O (stereo not shown) [Example 16, 5-[2-isopropyl-6-[8-(6-piperazin-1-yl-3-pyridyl)-3,4,6,7,9,9a-hexahydro-1H-pyrazino[1,2-a]pyrazin-2-yl]-3-pyridyl]-1,3-dimethyl-pyridin-2-one] | 324 nM
17 | Cc1cc(-c2ccc(N3CCN(Cc4ccc(N5CCNCC5)cc4)CC3)nc2C(F)F)cn(C)c1=O [Example 17, 5-[2-(difluoromethyl)-6-[4-[(4-piperazin-1-ylphenyl)methyl]piperazin-1-yl]-3-pyridyl]-1,3-dimethyl-pyridin-2-one] | 68 nM
18 | Cc1cc(-c2ccc(N3CCC(N4CCNCC4)CC3)nc2C(C)C)cn(C)c1=O [Example 18, 5-[2-isopropyl-6-(4-piperazin-1-yl-1-piperidyl)-3-pyridyl]-1,3-dimethyl-pyridin-2-one] | 798 nM
19 | CCc1nc(N2CCN3CCN(c4cnc(N5CC6(CNCCO6)C5)nc4)CC3C2)ccc1-c1cc(C)c(=O)n(C)c1 (stereo not shown) [Example 19, 5-[2-ethyl-6-[2-[2-(5-oxa-2,8-diazaspiro[3.5]nonan-2-yl)pyrimidin-5-yl]-3,4,6,7,9,9a-hexahydro-1H-pyrazino[1,2-a]pyrazin-8-yl]-3-pyridyl]-1,3-dimethyl-pyridin-2-one] | 833 nM
